Laboratory results as given in patent US7449474B2, “Tri-substituted ureas as cytokine inhibitors” (The Procter & Gamble Company, priority 2004, dated 2008).
pIC50: −log10 of the molar value.

What follows are compounds tested on TNF-α (assay: Inhibition of TNF-α in lipopolysaccharide (LPS) stimulated human monocytic THP-1 cells). Settings: LPS (1 μg/mL) stimulated THP-1 cells, 4 hours incubation, human TNF-α by ELISA.
Format: cell-based
From the text: In addition, Tumor Necrosis Factor, TNF-α, inhibition can be measured by utilizing lipopolysaccharide (LPS) stimulated human monocytic cells (THP-1) as described in: • i) K. M. Mohler et al., “Protection Against a Lethal Dose of Endotoxin by an Inhibitor of Tumour Necrosis Factor Processing”, Nature, 370, pp 218-220 (1994). • ii) U.S. Pat. No. 6,297,381 B1 Cirillo et al., issued Oct. 2, 2001, incorporated by reference and reproduced herein below in relevant portion thereof.
The inhibition of cytokine production can be observed by measuring inhibition of TNF-α in lipopolysaccharide stimulated THP-1 cells. All cells and reagents are diluted in RPMI 1640 with phenol red and L-glutamine, supplemented with additional L-glutamine (total: 4 mM), penicillin and streptomycin (50 units/mL each) and fetal bovine serum (FBS 3%) (GIBCO, all conc. Final). Assay is performed under sterile conditions, only test compound preparation is non-sterile. Initial stock solutions are made in DMSO followed by dilution into RPMI 1640 2-fold higher than the desired final assay concentration. Confluent THP-1 cells ([…], final conc.; American Type Culture Company, Rockville, Md.) are added to 96 well polypropylene round bottomed culture plates (Costar 3790; sterile) containing 125 μL test compound (2-fold concentrated) or DMSO vehicle (controls, blanks). DMSO concentration should not exceed 0.2% final. Cell mixture is allowed to preincubate for 15 minutes at 37° C., 5% CO2 prior to stimulation with lipopolysaccharide (LPS, 1 μg/mL final; Sigma L-2630, from E. coli serotype 0111.B4; stored as 1 mg/mL stock in endotoxin screened diluted H2O vehicle at −80° C.). Blanks (unstimulated) receive H2O vehicle; final incubation volume is 250 μL. Incubation (4 hours) proceeds as described above. Assay is to be terminated by centrifuging plates 5 minutes at room temperature, 1600 rpm ([…]); supernatants are then transferred to clean 96 well plates and stored at −80° C. until analyzed for human TNF-α by a commercially available ELISA kit (Biosource #KHC3015, Camarillo, Calif.). The calculated IC50 value is the concentration of the test compound that caused a 50% decrease in the maximal TNF-α production.

Q: `CCNC(=O)N(c1ccc(OC)cc1)c1ccnc(N[C@@H](C)C(C)(C)O)n1` [1-(4-Methoxyphenyl)-1-{2-[(1S)-2-hydroxy-1,2-dimethyl-propylamino]-pyrimidin-4-yl}-3-ethyl-urea] was tested. Which pIC50 did it give?
A: 7.80

Q: How did the pIC50 turn out when `CCNC(=O)N(c1ccc(F)cc1)c1ccnc(NC2CCOCC2)n1` [1-(4-Fluorophenyl)-1-[2-(tetrahydro-pyran-4-ylamino)-pyrimidin-4-yl]-3-ethyl-urea] was run?
A: 7.07

Q: With `CCCCNC(=O)N(c1ccc(OC)cc1)c1ccnc(N[C@@H](C)COC)n1` [1-(4-Methoxyphenyl)-1-{2-[(1S)-2-methoxy-1-methyl-ethylamino]-pyrimidin-4-yl}-3-butyl-urea] as the compound, how does the pIC50 read?
A: 6.49

Q: `CCNC(=O)N(c1ccc(OC)cc1)c1ccnc(N[C@@H](C)COC)n1` [1-(4-Methoxyphenyl)-1-{2-[(1S)-2-methoxy-1-methyl-ethylamino]-pyrimidin-4-yl}-3-ethyl-urea] was tested. Which pIC50 did it give?
A: 6.18

Q: `CCNC(=O)N(c1ccc(F)cc1)c1ccnc(NC(C)C)n1` [1-(4-Fluorophenyl)-1-[2-(iso-propylamino)-pyrimidin-4-yl]-3-ethyl-urea] was tested. Which pIC50 did it give?
A: 7.55

Q: With `CCNC(=O)N(c1ccc(F)cc1)c1ccnc(N[C@@H](C)C(C)(C)O)n1` [1-(4-Fluorophenyl)-1-{2-[(1S)-2-hydroxy-1,2-dimethyl-propylamino]-pyrimidin-4-yl}-3-ethyl-urea] as the compound, how does the pIC50 read?
A: 7.52

Q: How did the pIC50 turn out when `CCNC(=O)N(c1ccc(SC)cc1)c1ccnc(N[C@@H](C)COC)n1` [1-(4-Methylsulfanylphenyl)-1-{2-[(1S)-2-methoxy-1-methyl-ethylamino]-pyrimidin-4-yl}-3-ethyl-urea] was run?
A: 7.59

Q: `CCNC(=O)N(c1ccc(OCC)cc1)c1ccnc(N[C@@H](C)COC)n1` [1-(4-Ethoxyphenyl)-1-{2-[(1S)-2-methoxy-1-methyl-ethylamino]-pyrimidin-4-yl}-3-ethyl-urea] was tested. Which pIC50 did it give?
A: 6.56
